{"source": "patent US20050129779A1", "about": "“Use of a hsp inducing compound to limit the side effects of retinoids” (priority 2002, published 2005)", "key": {"HSP 70 [1]": {"test_system": "HSP 70", "assay": "Immuno-blot of HSP in cultured human fibroblasts", "format": "cell-based", "settings": "10^-7 M ATRA, 3% extract", "method": "[…] Several different experimental conditions were used for the fibroblasts.\nThe conditions that were tested on the fibroblasts were as follows: • Control condition (non-treated cells) • Cells treated with 10^−7M all-trans retinoic acid (ATRA) • Cells treated with 3% of the extract from example 1 • Cells treated with 10^−7 M all-trans retinoic acid and 3% of the extract from example 1.\nThe results illustrated in FIGS. 1 and 2 represent the quantities of HSP obtained by immunoblotting carried out on the human fibroblasts following the treatments in various culture conditions."}, "HSP 70 [2]": {"test_system": "HSP 70", "assay": "Ex vivo immunostaining of HSP 70 in cultured skin samples", "format": "cell-based", "settings": "ex vivo skin cultured 5 days; 10^-7 retinoic acid; 1-3% extract", "description": "Ex vivo immunostaining studies have enabled it to be determined that HSP 70 is expressed in skin samples which have been cultured for 5 days. The samples were either treated or untreated with 10^−7retinoic acid plus 1-3% of the extract from example 1."}, "IL-1 alpha": {"test_system": "IL-1 alpha", "assay": "Interleukin-1 ELISA in HaCat keratinocytes and fibroblasts (inflammation induced by retinoids)", "format": "cell-based, human", "settings": "10^-7 M ATRA 6 days, 3% extract 48 hours", "method": "The Artemia extract from example 1 was used at 3% in in vitro tests in order to show the benefits of applying it in combination with retinoids, with the overall goal of diminishing the inflammation induced by retinoids.\nHuman HaCat keratinocytes and fibroblasts were cultured in 100mm diameter culture dishes. When the cells reached 50% confluence, they were either treated with 3% of extract from example 1 or not, for 48 hours. In a parallel manner, concentrations of 10^−7M all-trans retinoic acid (ATRA) were, or were not, applied.\nThe following experimental conditions were used for the different treatment groups: • Control condition (no treatment); • Extract from example 1 for 48n hours; • All-trans retinoic acid (ATRA) for 6 days; • All-trans retinoic acid (ATRA) for 6 days of which 48 hours were treated in combination with the extract from example 1.\nAfter six days in culture, the dose of Interleukin-1 was determined using ELISA, to show evidence of an inflammatory reaction."}, "HSP 70 [3]": {"test_system": "HSP 70", "settings": "ex vivo skin irradiated with 200 mJ/cm^2 UVB; 10^-7 retinoic acid; 1-3% extract", "quoted_text": "The samples were either treated or untreated with 10^−7retinoic acid plus 1-3% of the extract from example 1. The skin samples were subsequently fixed in 9% formol salt for 10 hours. They were then embedded in paraffin using an automated method. 2-3 urn sections were then cut to be used for immunostaining.\nThe experiments in example three were repeated except that the skin samples were irradiated with a 200 mJ/cm^2 dose of UVB."}}}
{"compound": "CC1=C(/C=C/C(C)=C/C=C/C(C)=C/C(=O)O)C(C)(C)CCC1", "note": "[retinoic acid, all-trans retinoic acid]", "values": [{"measurement": "HSP 70 expression (immuno-blot, FIG. 2)", "setting": "HSP 70 [1]; aging human fibroblasts (printed: cultured)", "value": "slightly augmented"}, {"measurement": "HSP 70 expression (immuno-blot, FIG. 1)", "setting": "HSP 70 [1]; young human fibroblasts (printed: cultured for 24 hours)", "value": "diminished"}, {"measurement": "HSP 70 expression in skin samples (immunostaining)", "setting": "HSP 70 [2]", "value": "clearly express less HSP 70 than non-treated skin samples"}, {"measurement": "IL-1 alpha concentration / inflammatory response (ELISA, FIG. 3)", "setting": "IL-1 alpha", "value": "significantly augmented"}, {"measurement": "HSP 70 expression in skin samples following UV stress (immunostaining)", "setting": "HSP 70 [3]", "value": "clearly diminished"}]}
